{"source": "patent US12168008B2", "about": "“Oxabicycloheptanes for modulation of immune response” (LIXTE BIOTECHNOLOGY, INC., priority 2016, dated 2024)", "key": {"progressive solid tumors": {"test_system": "progressive solid tumors", "test": "Phase I study: clinical activity (RECIST 1.1)", "assay_type": "in vivo, human", "procedure": "Response to treatment was assessed using RECIST version 1.1. All patients with measurable disease, who completed 2 cycles of LB-100 and had at least 1 post-baseline tumor assessment, were evaluable for efficacy. Patients receiving any LB-100 were evaluable for safety. The severity of adverse events and laboratory abnormalities is reported according to NCI-CTCAE version 4.0 and coded using Medical Dictionary for Regulatory Activities."}, "[1]": {"test_system": "tumor infiltrating lymphocytes", "test": "Flow cytometry of tumor infiltrating lymphocytes, spleen and draining lymph node in CT26-bearing mice", "assay_type": "in vivo, mouse", "procedure": "The treatment effect was assessed on tumor infiltrating lymphocytes (FIGS. 23A-B). CT26 tumor-bearing mice were treated with LB-100 and/or anti-PD-1 antibodies as above. After 12 days of treatment, tumors were analyzed by FACS. […] In addition, given the known importance of PP2A in Treg, the effect of LB-100 and/or anti-PD-1 treatment was examined on the amount of Tregs present in the tumor. […] This effect is similar in degree to the effect on Tregs depletion by anti-PD-1 or the combination.\nEnhanced activation of lymphocytes with combination treatment: To address the cellular mechanism mediating tumor rejection by the LB-100/aPD-1 combination, the status of the immune system in the secondary lymphoid organs and in the tumor were examined. Mice were implanted with CT26 tumors and treated with LB-100 and/or aPD-1 as described above. On day 3, after two treatments, the spleens, tumor draining lymph nodes (dLN) and tumors were harvested and analyzed by flow cytometry (FIG. 26-27). In the secondary lymphoid tissue, a greater activation of CD8+ T cells in mice treated with the combination regimen compared to controls was observed, as indicated by greater frequency of CD44+CD62L-CD8+ T cells (FIG. 26A-C). […] There was no difference in frequency of CD44+CD62L− subset in CD4+ T cells in both the spleen and dLN (FIGS. 28A and 29A). Immune check point markers, including expression of PD-1, CTLA4, TIM3 and Ox40 on CD8+ and CD4+ T cells were examined in the tumor draining lymph node and spleen (FIGS. 28 and 29).\nIsolation of TILs—Mice were injected in the right thoracic flank with 0.5×10^6 CT26 cells and treated as above after tumors reached between 50-100 mm^3. After 2 treatments, mice were sacrificed and tumors excised. Tumors were subjected to mechanical disruption using a GentleMACS Dissociator (Miltenyi Biotec) in presence of enzymatic digestion using Tumor Dissociation Kit (Miltenyi Biotec). […] Cells were analyzed by flow cytometry (LSRII; BD Bioscience). […]"}, "B16F10 cells": {"test_system": "B16F10 cells", "test": "B16F10 melanoma tumor prevention model", "assay_type": "in vivo, mouse", "conditions": "day 15 after tumor implantation", "procedure": "LB-100 and aPD-1 enhance anti-tumor activity in B16 melanoma without histologic evidence of autoimmunity: It was next determined whether LB-100/aPD-1 combination was effective against other aPD-1 resistant tumor. In a tumor prevention model, 6-8 weeks old C57BL/6 mice were randomized into four treatment groups: PBS, LB-100, aPD-1 and combination. B16F10 cells (2.5×10^5) were inoculated 2 days after initiation of treatment subcutaneously in the right thoracic flank. Treatments were administered every two days following survival (FIG. 34A). By day 15 after tumor implantation, there was no difference between control and the single agent arms.\nSyngeneic tumor models—Mice were maintained and experiments were conducted with the approval of the NINDS Animal Use and Care Committees. For CT26 tumors: BALB/c (6-8 wk old) were purchased from Charles River Laboratory. CT26 cells (0.5×10^6) were injected into the right flank subcutaneously. […] Treatments were given every 2 days for 30 days. […]"}, "[2]": {"test_system": "mTORC1, mTORC2 and PI(3)K-AKT pathways", "test": "Phosphoflow of AKT and S6 in activated CD3 cells", "assay_type": "cell-based, mouse", "conditions": "after 3 hours of activation", "procedure": "After 3 hours of in vitro activation of isolated CD3 cells, the activity of mTORC1, mTORC2 and PI(3)K-AKT pathways were assessed by checking the phosphorylation of ribosomal S6 protein (S6), AKT at […] and AKT at Thr308 respectively. […] This difference was not observed in any of the 3 pathways at an early time point of 30 minutes after activation (FIG. 37).\nIsolation of TILs—Mice were injected in the right thoracic flank with 0.5×10^6 CT26 cells and treated as above after tumors reached between 50-100 mm^3. After 2 treatments, mice were sacrificed and tumors excised. Tumors were subjected to mechanical disruption using a GentleMACS Dissociator (Miltenyi Biotec) in presence of enzymatic digestion using Tumor Dissociation Kit (Miltenyi Biotec). Intracellular cytokine staining, phosphoflow and flow cytometry—Suspensions containing T cells were stained with a fixable live/dead stain (Invitrogen) in PBS followed by surface antibody staining in FACS buffer (PBS with 0.5% BSA and 0.1% sodium azide). For intracellular staining, cells were stained for surface molecules following by fixation and permeabilization (eBioscience). For cytokine staining, cells were first stimulated with Cell Stimulation Cocktail (eBioscience) containing PMA/Ionomycin and protein transport inhibitor prior to undergoing staining. […] Cells were analyzed by flow cytometry (LSRII; BD Bioscience). […]"}, "[3]": {"conditions": "of 20 patients with measurable disease"}}, "data": [{"smiles": "CN1CCN(C(=O)C2C(C(=O)O)[C@H]3CC[C@@H]2O3)CC1", "note": "(some centres unmarked) [LB-100]", "values": [{"measurement": "duration of partial response or stability of disease", "setting": "progressive solid tumors; atypical carcinoid of the lung, 0.83 mg/m^2", "result": 5, "unit": "cycles"}, {"measurement": "duration of partial response or stability of disease", "setting": "progressive solid tumors; breast cancer, 1.25 mg/m^2", "result": 4, "unit": "cycles"}, {"measurement": "duration of partial response or stability of disease", "setting": "progressive solid tumors; chondrosarcoma, 3.1 mg/m^2", "result": 8, "unit": "cycles"}, {"measurement": "duration of partial response or stability of disease", "setting": "progressive solid tumors; fibrosarcoma, started at 3.1 mg/m^2, two dose reductions", "result": 12, "unit": "cycles"}, {"measurement": "duration of partial response or stability of disease", "setting": "progressive solid tumors; malignant thymoma, 1.75 mg/m^2", "result": 8, "unit": "cycles"}, {"measurement": "no progression of indicator lesion(s)", "setting": "progressive solid tumors; [3]", "result": 16, "unit": "patients"}, {"measurement": "significant increases in the size of indicator lesion(s) by RECIST criteria", "setting": "progressive solid tumors; [3]", "result": 3, "unit": "patients"}, {"measurement": "duration of partial response or stability of disease", "setting": "progressive solid tumors; ovarian cancer, 1.75 mg/m^2", "result": 6, "unit": "cycles"}, {"measurement": "duration of partial response or stability of disease", "setting": "progressive solid tumors; pancreatic cancer, 0.83 mg/m^2", "result": 15, "unit": "cycles"}, {"measurement": "partial response", "setting": "progressive solid tumors; pancreatic carcinoma, noted after 10 cycles, maintained 5 more cycles, of 20 patients", "result": "One and one"}, {"measurement": "duration of partial response or stability of disease", "setting": "progressive solid tumors; testicular cancer, 1.25 mg/m^2", "result": 5, "unit": "cycles"}, {"measurement": "Tregs in the tumor", "setting": "[1]; after 12 days of treatment, control 14.7", "result": 2.1, "unit": "%"}, {"measurement": "CD44+CD62L-CD8+ T cells in the spleen", "setting": "[1]; day 3, after two treatments, control 13.0", "result": 16.6, "unit": "%"}, {"measurement": "PD-1 expression in CD4+ and CD8+ TILs", "setting": "[1]; mouse, in vivo", "result": "did not further alter PD-1 expression"}, {"measurement": "tumor size, single agent arms vs control", "setting": "B16F10 cells", "result": "no difference"}, {"measurement": "activity of mTORC1 as measured by phosphorylation of S6", "setting": "[2]", "result": "dose dependent increase"}, {"measurement": "mTORC2 and PI(3)K-AKT pathways (AKT phosphorylation)", "setting": "[2]", "result": "minimal effect"}]}]}
